{
  "source": "patent US20250304973A1",
  "about": "“HIGH-AFFINITY THROMBIN APTAMERS AND METHODS OF USE” (Ayass Bioscience LLC, priority 2024, published 2025)",
  "key": {"Factor II activity": {"biological_target": "T1, Factor II activity (Homo sapiens, UniProt P00734)", "T1 construct": "tissue Rockland Immunochemicals, Inc R214-0050; host or cells: human citrated plasma / whole blood", "assay": "Factor II activity assay in human citrated plasma (ACLTOP analyzer)", "format": "biochemical", "settings": "for reduction in Factor II activity: 2 uM, 2 h, normalized against untreated control; for impact of modified aptamer on Factor II activity: 2 uM modified aptamer, 1 hour room temperature plus 2-hour incubation, versus unmodified aptamer", "method": "(§1) Plasma was prepared by centrifugation for 10 min at 2000×g. In vitro activity assays were performed on ACLTOP analyzer manufactured by Instrumentation Laboratory, which is a type of coagulation analyzer commonly used in clinical laboratories to measure clotting times and assess coagulation parameters. The ACLTOP analyzer is designed to perform a wide range of coagulation tests, including Factor II activity, prothrombin time (PT), activated partial thromboplastin time (APTT), fibrinogen, and other related assays. ACLTOP analyzer uses HemosIL reagents developed by Instrumentation Laboratory company (Bedford, MA, USA) to perform coagulation tests.\nFactor II activity was measured using human plasma immunodepleted of Factor II for the quantitative determination of Factor II activity in citrated plasma based on the prothrombin time (PT) assay, for which an ACLTOP coagulation analyzer manufactured by Instrumentation Laboratory (Bedford, MA, USA) was used. To evaluate the dose-dependent activity of the aptamers in whole blood, human blood samples were collected in citrate-treated tubes. Subsequently, the blood samples were incubated at room temperature for 2 h in both the absence and presence of various concentrations of thrombin aptamers. To measure the Factor II activity using the ACLTOP coagulation analyzer, plasma was separated from the cells by centrifugation at 1500×g for 10 min at 4° C. For the dose-dependent study, concentrations of 1 uM, 2 uM, 3 uM, and 4 uM of AYA1809002 and AYA1809004 were utilized.\n(§2) Modified aptamers chemically crosslinked with TAG, PEG, and cholesterol entities at the 3′ end, were purchased from IDT (Integrated DNA Technologies, Coralville, IA, USA). The impact of modified AYA1809002 and AYA1809004 aptamers on Factor II activity, PT, and APTT was evaluated using the same protocol as was used for the unmodified aptamers. Additionally, the potential for reversal was investigated using the respective reverse complement for each aptamer."}, "[1]": {"biological_target": "T2, human alpha-thrombin protein (Homo sapiens, UniProt P00734)", "T2 construct": "Native human alpha-thrombin protein; purchased ThermoFisher Scientific RP-43100; host or cells: native protein", "assay": "ELISA-based binding assay of biotinylated thrombin aptamers to thrombin protein", "settings": "top nine enriched aptamers, biotinylated; FIG. 2A", "method": "135. Native human alpha-thrombin protein (ThermoFisher Scientific, cat #RP-43100, Waltham, MA, USA) was added to each well of a 96-well plate (Nunc MaxiSorp flat-bottom 96-well plates, ThermoFisher Scientific, cat #44-2404-21, Waltham, MA, USA) at a concentration of 250 nM in Tris-buffered saline with a volume of 100 μL per well. The plate was then incubated at 4° C. for 16 h to allow the wells to become coated with thrombin. After removing the thrombin solution, the wells were washed and blocked using blocking buffer (20 mM Tris, 150 mM NaCl pH 7.5, 2% BSA, 0.1% Tween 20 and 100 μg/mL of sheared salmon sperm DNA) for a 1 h duration. Next, biotinylated aptamers at the indicated concentrations in a volume of 100 μL were added to the wells in an incubation buffer (20 mM Tris, 150 mM NaCl pH 7.5, 0.1% BSA, 0.1% Tween 20 and 100 μg/mL of sheared salmon sperm DNA) and incubated for 1 h at room temperature. In the competition binding assay, unlabeled aptamers were added along with the biotinylated aptamers, with the unlabeled aptamers being present in a 100-fold excess compared to the biotinylated aptamers. Following three washing steps with wash buffer (20 mM Tris, 150 mM NaCl pH 7.5, 0.1% BSA and 0.1% Tween 20), streptavidin-HRP (ThermoFisher Scientific, cat #21130, Waltham, MA, USA) was added at a dilution of 1:5000 in the incubation buffer. The plate was washed again three times to remove any unbound reagents. The bound biotinylated aptamers were then detected using 3,3′,5,5′-Tetramethylbenzidine (TMB) substrate (ThermoFisher Scientific, cat #34021, Waltham, MA, USA) following the manufacturer's instructions."}, "human citrated plasma [2]": {"system": "human citrated plasma", "assay": "Prothrombin time (PT) assay in human citrated plasma", "format": "biochemical", "settings": "for increase in PT time: 2 uM, 2 h, versus untreated control; for impact of modified aptamer on PT: 2 uM modified aptamer, 1 hour room temperature plus 2-hour incubation, versus unmodified aptamer", "method": "as §1\nPT time was measured using RecombiPlasTin 2G for quantitative determination in human citrated plasma of PT and Fibrinogen on an ACLTOP coagulation analyzer manufactured by Instrumentation Laboratory (Bedford, MA, USA). To assess the activity of the aptamers in a dose-dependent manner in whole blood, human blood samples were collected in citrate-treated tubes. The blood samples were then incubated at room temperature for 2 h in the absence or presence of varying concentrations of the thrombin aptamers. To measure the Prothrombin Time (PT) on the ACLTOP coagulation analyzer, plasma was obtained by centrifuging the samples at 1500×g for 10 min at 4° C. For the dose dependence study, concentrations of 1 uM, 2 uM, 3 uM, and 4 uM of AYA1809002 and AYA1809004 were utilized.\nas §2"}, "human citrated plasma [3]": {"system": "human citrated plasma", "assay": "Activated partial thromboplastin time (APTT) assay in human citrated plasma", "format": "biochemical", "settings": "for increase in APTT time: 2 uM, 2 h, versus untreated control; for impact of modified aptamer on APTT: 2 uM modified aptamer, 1 hour room temperature plus 2-hour incubation, versus unmodified aptamer", "method": "as §1, with “137. Sterile human blood in sodium citrate was purchased from the Rockland Immuno- chemicals, Inc (cat #R214-0050, Pottstown, PA 19464, USA). Plasma” for “Plasma”\n140. […] APTT time was measured using the synthetic phospholipid reagent SynthASIil for quantitative determination in human citrated plasma on an ACLTOP coagulation analyzer manufactured by Instrumentation Laboratory (Bed- ford, MA, USA).\nas §2, with “146. Modified” for “Modified”"}, "clot-bound thrombin": {"system": "clot-bound thrombin", "settings": "in vivo studies, literature; cited from earlier work"}, "rat whole blood": {"system": "rat whole blood", "assay": "Factor II activity, PT, APPT and TT in rat whole blood", "format": "biochemical"}, "[4]": {"settings": "in clinical trials; cited from earlier work"}, "[5]": {"settings": "requires refrigeration; cited from earlier work"}, "[6]": {"biological_target": "thrombin over other serine proteases (Homo sapiens, UniProt P00734)", "settings": "Table 3, existing solution; cited from earlier work"}, "[7]": {"settings": "Table 3, existing solution; cited from earlier work"}, "[8]": {"settings": "Table 3, existing solution; cited from earlier work", "remark": "listed apart in the source"}, "AYA1809002": {"system": "AYA1809002", "assay": "Restoration of Factor II activity and PT time with reverse complement in whole blood", "format": "biochemical, human", "settings": "1 uM AYA1809002 2 h room temperature in whole blood, then reverse complement; even at 1:1 ratio", "method": "144. Citrated blood collected from a donor was incubated in the absence or presence of 1 uM AYA1809002 at room temperature. After 2 h incubation, the indicated concentration of the reverse complement strand was added to the citrated blood sample. After an additional incubation time of 2 h, plasma was obtained through centrifugation. Factor II activity was measured using human plasma immunodepleted of Factor II for the quantitative determination of Factor II activity in citrated plasma based on the prothrombin time (PT) assay, for which an ACLTOP coagulation analyzer manufactured by Instrumentation Laboratory (Bedford, MA, USA) was used. The PT time was measured using RecombiPlasTin 2G for quantitative determination in human citrated plasma of PT and Fibrinogen on an ACLTOP coagulation analyzer manufactured by Instrumentation Laboratory (Bedford, MA, USA)."}, "[9]": {"system": "modified AYA1809002 and AYA1809004 aptamers", "assay": "Reversal potential of reverse complement on modified aptamers in human citrated plasma", "format": "biochemical", "settings": "5 μM reverse complement strand, additional 2-hour incubation", "method": "as §2, with “146. Modified” for “Modified”"}},
  "note": "{CholTEG} = cholesterol attached through a triethylene glycol linker; {Sp18} = hexaethylene glycol (Sp18, PEG) spacer; {Sp9} = triethylene glycol (Sp9, TEG) spacer",
  "data": [
    {"substance": "AYA1809007: ssDNA thrombin aptamer AGGGGCTCTAGGGTGGGTAGGATGGTGAGACCGCAGCGT (DNA, backbone and methylation of C not given here; further chemistry not fully specified)", "values": [
      {"measurement": "reduction in Factor II activity", "setting": "Factor II activity", "value": "more than 75%"},
      {"measurement": "binding to immobilized human thrombin (absorbance at 450 nm)", "setting": "[1]", "value": "strong binding capabilities"},
      {"measurement": "increase in PT time", "setting": "human citrated plasma [2]", "value": "two-fold increases"},
      {"measurement": "increase in APTT time", "setting": "human citrated plasma [3]", "value": "three-fold increase"}
    ]},
    {"substance": "HD1: first anti-thrombin DNA aptamer, 15-mer 5′-GGTTGGTGTGGTTGG-3′ binding exosite I (DNA, backbone not given here)", "values": [
      {"measurement": "inhibition of clot-bound thrombin", "setting": "clot-bound thrombin", "value": "> 80", "unit": "%"}
    ]},
    {"substance": "PEG-modified AYA1809002: AYA1809002 sequence with /3Sp18/ at the 3′ end (DNA GCGGTGTTGCTGGGGTTGGGAGGTTGGAGGAAGCAATCGC; DNA, 3' {Sp18}, backbone and methylation of C not given here)", "values": [
      {"measurement": "APPT in rat whole blood", "setting": "rat whole blood; dose-dependent manner", "value": "extend"},
      {"measurement": "Factor II activity in rat whole blood", "setting": "rat whole blood; dose-dependent manner", "value": "inhibit"},
      {"measurement": "PT in rat whole blood", "setting": "rat whole blood; dose-dependent manner", "value": "extend"},
      {"measurement": "TT in rat whole blood", "setting": "rat whole blood; dose-dependent manner", "value": "extend"}
    ]},
    {"substance": "PEG-modified AYA1809004: AYA1809004 sequence with /3Sp18/ at the 3′ end (DNA TCGTCAAGGTACGGTTGGGGGGGTGGGTGTTGACGTTGAA; DNA, 3' {Sp18}, backbone and methylation of C not given here)", "values": [
      {"measurement": "impact of modified aptamer on Factor II activity", "setting": "Factor II activity", "value": "noticeable inhibition"},
      {"measurement": "impact of modified aptamer on PT", "setting": "human citrated plasma [2]", "value": "slight increase"},
      {"measurement": "impact of modified aptamer on APTT", "setting": "human citrated plasma [3]", "value": "slight increase"}
    ]},
    {"substance": "TEG-modified AYA1809004: AYA1809004 sequence with /3Sp9/ at the 3′ end (DNA TCGTCAAGGTACGGTTGGGGGGGTGGGTGTTGACGTTGAA; DNA, 3' {Sp9}, backbone and methylation of C not given here)", "values": [
      {"measurement": "impact of modified aptamer on Factor II activity", "setting": "Factor II activity", "value": "noticeable inhibition"},
      {"measurement": "impact of modified aptamer on PT", "setting": "human citrated plasma [2]", "value": "slight increase"},
      {"measurement": "impact of modified aptamer on APTT", "setting": "human citrated plasma [3]", "value": "slight increase"}
    ]},
    {"substance": "cholesterol-modified AYA1809004: AYA1809004 sequence with /3CholTEG/ at the 3′ end; Table 2 misprints the name (DNA TCGTCAAGGTACGGTTGGGGGGGTGGGTGTTGACGTTGAA; DNA, 3' {CholTEG}, backbone and methylation of C not given here)", "values": [
      {"measurement": "impact of modified aptamer on Factor II activity", "setting": "Factor II activity", "value": "no significant impact"},
      {"measurement": "impact of modified aptamer on PT", "setting": "human citrated plasma [2]", "value": "no significant impact"},
      {"measurement": "impact of modified aptamer on APTT", "setting": "human citrated plasma [3]", "value": "no significant impact"}
    ]},
    {"substance": "dabigatran", "values": [
      {"measurement": "reduction in Factor II activity", "setting": "Factor II activity", "value": 80, "unit": "%"},
      {"measurement": "life-threatening bleeding risks", "setting": "[4]", "value": "bleeding risks (′ 3.3%"},
      {"measurement": "shelf life", "setting": "[5]", "value": "shelf life 36 months"},
      {"measurement": "selectivity", "setting": "[6]", "value": "~300-fold selectivity"},
      {"measurement": "increase in PT time", "setting": "human citrated plasma [2]", "value": "two-fold increases"},
      {"measurement": "Onset of Action: peak effect", "setting": "[7]", "value": "Peak effect 2-3 hours"},
      {"measurement": "Half-life", "setting": "[8]", "value": "Half-life of 12-17 hours"},
      {"measurement": "Renal Clearance", "setting": "[8]", "value": "~80", "unit": "%"},
      {"measurement": "increase in APTT time", "setting": "human citrated plasma [3]", "value": "three-fold increase"}
    ]},
    {"substance": "heparin", "values": [
      {"measurement": "inhibition of clot-bound thrombin", "setting": "clot-bound thrombin", "value": 35, "unit": "%"}
    ]},
    {"substance": "reverse complement of AYA1809002: aptamer antidote GCGATTGCTTCCTCCAACCTCCCAACCCCAGCAACACCGC (DNA, backbone and methylation of C not given here)", "values": [
      {"measurement": "restoration of Factor II activity by reverse complement", "setting": "AYA1809002", "value": "effectively restored"},
      {"measurement": "restoration of PT time by reverse complement", "setting": "AYA1809002", "value": "effectively restored"},
      {"measurement": "neutralization of aptamer effects in rat whole blood", "setting": "rat whole blood; reverse complement strand", "value": "neutralized the observed effects"},
      {"measurement": "reversal of modified aptamers' effects on Factor II activity, PT and APTT", "setting": "[9]", "value": "effectively reverses the observed effects"}
    ]},
    {"substance": "reverse complement of AYA1809004: aptamer antidote TTCAACGTCAACACCCACCCCCCCAACCGTACCTTGACGA (DNA, backbone and methylation of C not given here)", "values": [
      {"measurement": "reversal of modified aptamers' effects on Factor II activity, PT and APTT", "setting": "[9]", "value": "effectively restored"}
    ]}
  ]
}
